Test results published in patent US20050155087A1, “Method of screening compounds” (priority 2001, published 2005).

Key:
[1] = system: cds mutant zebrafish embryos; assay: rescue of polyploid zebrafish mutant cds; conditions: in vivo
Excerpt: FIGS. 6A-6E show the ability of 8G16 to rescue a crash&burn (crb) zebrafish mutant (FIGS. 6B, untreated crb mutant and 6D 8G16 treated crb mutant) but not another polyploid zebrafish mutant cds (FIGS. 6C, untreated cds mutant and 6E, 8G16 treated cds mutant) compared to a wild-type, untreated embryo (FIG. 6A).

zebrafish embryos [2] = assay: FACS analysis of the cell cycle of cells from treated embryos; type: in vivo; conditions: embryos treated with 10 and 100 μM 8G16
Excerpt: Flow cylometric cell sorting analysis of zebrafish embryos to identify defects in cell cycle: To analyze the DNA content of the embryos wild-type and mutant embryonic cells were subjected to DNA flow cytometric cell sorting (FACS). We have shown that the FACS analysis of DNA content can be performed on cells from a single embryo allowing analysis and comparison of mutant and wild-type cell cycle phenotypes.
Embryos were anesthetized with tricaine (3-amino benzoic acid ethylester also called ethyl m-aminobenzoate, in a powdered form from Sigma, Cat.# A-5040). Tricaine solution for anesthetizing fish was prepared by combining the following: 400 mg tricaine powder, 97.9 ml DD water, and about 2.1 ml 1 M Tris (pH 9), pH was adjusted to about 7. Before use 4.2 ml of Tricaine solution was mixed with 100 ml clean tank water.
The embryos were dechorionated as described above and resuspended in a small volume of DMEM −20% FBS in a microtube. Embryos were disaggregated and resuspend in 1-2 ml of DMEM+20% FBS. The solution was passed through 105 μm mesh, and consequently 40 μm mesh. The total volume was raised to 5 ml and the cells' in the sample was counted using hemocytometer. Volume equaling 2×10^6 cells was transferred in 15 ml conical tube and filled to a total volume of 5 ml with PBS. The sample was spinned at 1200 rpm for 10 minutes and the liquid was aspirated off. […]

[3] = system: crash & burn (SQW 226) mutant zebrafish embryos; assay: chemical suppressor screen: whole mount P-H3 immunostaining of crash & burn embryos; type: in vivo, zebrafish (Danio rerio)
[4] = system: wild-type zebrafish embryos; conditions: in vivo
zebrafish embryos [5] = conditions: cited from earlier work; for apoptosis in zebrafish embryos: in vivo
[6] = system: zebrafish (wild-type and SQW mutant strains); conditions: in vivo
[7] = 9-20 μM, 24 hours of development

Structure (SMILES): O=C(Nc1ncccc1O)C12CC3CC(CC(C3)C1)C2 [8G16, Adamantane-1-carboxylic acid (3-hydroxy-pyridin-2-yl)-amide]
- rescue of polyploid zebrafish mutant cds [1]: not
- cell cycle phase distribution (zebrafish embryos [2]): accumulation of cell in the G1/S phase
- phenotypic appearance of crash & burn ([3]; 10 μM 8G16, P-H3 antibody staining, genotype still crb): prevents
- P-H3 staining of treated embryos [3, 7]: normal
- developmental delay of treated embryos [3, 7]: slight developmental delay
- crash & burn mutants detected at 24 hours of development ([3]; doses of 9, 12, 16 and 20 μM, 30-60 embryos at each dose): no crash & burn mutants were detected
- crash and burn cell cycle phenotype ([3]; through 24 hours of development): prevents
- rescue of crash&burn (crb) zebrafish mutant ([3]; zebrafish, in vivo): rescue
- effect on normal embryos [4]: without affecting
- toxicity or cell cycle affects on wild-type embryos [4]: without overt toxicity or cell cycle affects

Structure (SMILES): CNc1ccc2oc(C[C@H]3O[C@@]4(CC[C@H]3C)O[C@H]([C@H](C)C(=O)c3ccc[nH]3)[C@H](C)C[C@H]4C)nc2c1C(=O)O [A23187]
- fate of metaphase arrested cells (zebrafish embryos [5]; metaphase arrested cells): driven into G1

Structure (SMILES): C=CCOc1c(Br)cc(S(=O)(=O)c2cc(Br)c(O)c(Br)c2)cc1Br [Compound 2, 4-(4-Allyloxy-3,5-dibromo-benzenesulfonyl)-2,6-dibromo-phenol]
- P-H3 staining in crash and burn embryos ([3]; zebrafish, in vivo): decrease
- P-H3 staining in wildtype embryos [4]: decrease

Structure (SMILES): Cc1cc(O)c(C(=O)C=Cc2ccc(O)cc2)c(=O)o1 [Compound 3, 4-Hydroxy-3-[3-(4-hydroxy-phenyl)-acryloyl]-6-methyl-pyran-2-one]
- P-H3 staining in crash and burn embryos ([3]; zebrafish, in vivo): decrease
- P-H3 staining in wildtype embryos [4]: decrease

Structure (SMILES): O=C(c1ccccc1)C1C(=O)C2C=CC=CC2C1=O (stereo not shown) [Compound 4, 2-Benzoyl-3a,7a-dihydro-indene-1,3-dione]
- P-H3 staining in crash and burn embryos ([3]; zebrafish, in vivo): decrease
- P-H3 staining in wildtype embryos [4]: decrease

Structure (SMILES): Cc1ccc(S(=O)(=O)Oc2ccc([N+](=O)[O-])cc2[N+](=O)[O-])cc1 [Compound 5, Toluene-4-sulfonic acid 2,4-dinitro-phenyl ester]
- P-H3 staining in crash and burn embryos ([3]; zebrafish, in vivo): decrease
- P-H3 staining in wildtype embryos [4]: decrease

Structure (SMILES): O=C(Nc1cc(S(=O)(=O)c2ccc(Cl)cc2)ccc1Cl)c1cc(I)cc(I)c1O [Compound 6, 3,5-Diiodo-N-[2-chloro-5-(4-chloro-benzenesulfonyl)-phenyl]-2-hydroxy-benzamide]
- P-H3 staining in crash and burn embryos ([3]; zebrafish, in vivo): decrease
- P-H3 staining in wildtype embryos [4]: decrease

Structure (SMILES): Nc1cc([N+](=O)[O-])ccc1NNC(=O)Nc1ccccc1 [Compound 7, 1-(2-Amino-4-nitro-phenylamino)-3-phenyl-urea]
- P-H3 staining in crash and burn embryos ([3]; zebrafish, in vivo): decrease
- P-H3 staining in wildtype embryos [4]: decrease

Structure (SMILES): N=c1ccccn1CC(=O)c1ccc(Cl)c(Cl)c1 [Compound 8, 1-(3,4-Dichloro-phenyl)-2-(2-imino-2H-pyridin-1-yl)-ethanone]
- P-H3 staining in crash and burn embryos ([3]; zebrafish, in vivo): decrease
- P-H3 staining in wildtype embryos [4]: decrease

Structure (SMILES): Cc1ccccc1OCC(=O)Nc1ccccc1C(=O)O [Compound 9, 2-(2-o-Tolyloxy-acetylamino)-benzoic acid]
- P-H3 staining in crash and burn embryos ([3]; zebrafish, in vivo): decrease
- P-H3 staining in wildtype embryos [4]: decrease

Structure (SMILES): COC(=O)CCC(=O)Nc1ccccc1Cl [Compound 10, N-(2-Chloro-phenyl)-succinamic acid methyl ester]
- P-H3 staining in wildtype embryos [4]: increase

Structure (SMILES): O=C(O)CCCC(=O)Nc1cc(C(F)(F)F)ccc1Cl [Compound 11, 4-(2-Chloro-5-trifluoromethyl-phenylcarbamoyl)-butyric acid]
- P-H3 staining in wildtype embryos [4]: increase

Structure (SMILES): O=C(O)c1cc([N+](=O)[O-])c(Nc2cccc3ccccc23)c([N+](=O)[O-])c1 [Compound 12, 4-(Naphthalen-1-ylamino)-3,5-dinitro-benzoic acid]
- P-H3 staining in wildtype embryos [4]: increase

Structure (SMILES): O=C(CSC1CC(=O)N(c2cccc(Cl)c2)C1=O)Nc1cccc(F)c1 (stereo not shown) [Compound 13, 2-[1-(3-Chloro-phenyl)-2,5-dioxo-pyrrolidin-3-ylsulfanyl]-N-(3-fluoro-phenyl)-acetamide]
- P-H3 staining in wildtype embryos [4]: increase

Structure (SMILES): CC1=CCC2(CO)COC(c3ccccc3O)C1C2 (stereo not shown) [Compound 14, 2-(5-Hydroxymethyl-8-methyl-3-oxa-bicyclo[3.3.1]non-7-en-2-yl)-phenol]
- P-H3 staining in wildtype embryos [4]: increase

Structure (SMILES): CC(=O)C1=C(C)NC(=O)NC1c1cccc(O)c1 (stereo not shown) [Compound 15, 5-Acetyl-4-(3-hydroxy-phenyl)-6-methyl-3,4-dihydro-1H-pyrimidin-2-one]
- P-H3 staining in wildtype embryos [4]: increase

Structure (SMILES): Cc1c2ccccc2c(C)c2c1ccc1ccccc12 [DMBA, 7, 12 Dimethyl benzanlhracene]
- fish that developed tumors [6]: 10.4%
- tumor types [6]: more brain and liver tumors

Structure (SMILES): C[C@@]1(CO)[C@H](O)CC[C@@]2(C)[C@H]1CC[C@H]1C[C@@H]3C[C@@]12CC[C@]3(O)CO [aphidicolin, reference compound]
- apoptosis in zebrafish embryos (zebrafish embryos [5]): cause apoplosis
- P-H3 staining in all embryos, including crash & burn ([3]; offspring of crash & burn heterozygotes raised in the presence of the chemical): decreased

Structure (SMILES): CC[C@@]1(O)C(=O)OCc2c1cc1n(c2=O)Cc2cc3ccccc3nc2-1 [camptothecin]
- apoptosis in zebrafish embryos (zebrafish embryos [5]): cause apoplosis

Structure (SMILES): NC(=O)NO [hydroxyurea]
- apoptosis in zebrafish embryos (zebrafish embryos [5]): cause apoplosis

Structure (SMILES): COC(=O)Nc1nc2ccc(C(=O)c3cccs3)cc2[nH]1 [nocodazole]
- effect of treating post-MBT embryos (zebrafish embryos [5]; post-MBT embryos): metaphase arrest and apoptosis
